Earlier results as cited in patent US9072782B2, “Gadolinium complex, method for preparing same, and MRI contrast agent comprising same” (CATHLOIC UNIVERSITY INDUSTRY ACADEMIC COOPERATION FOUNDATION, priority 2009, dated 2015).

How the values were obtained:
[1] = Hiroki Yoshikawa et al., Gazoshindan 1986
[2] = prior DTPA-Gd

- half-life [1]: about 14 minutes
- time taken to be washed out from tissue [2]: about 30 minutes
Structure (SMILES): O=C([O-])CN(CCN(CC(=O)[O-])CC(=O)O)CCN(CC(=O)[O-])CC(=O)O.[Gd+3] [DTPA-Gd]
